The values below come from ChEMBL document CHEMBL4229373, “A comprehensive review of chalcone derivatives as antileishmanial agents” (Eur J Med Chem, 2018).

Assay [1] concerns Leishmania donovani. The experiment in a line: Antileishmanial activity against Leishmania donovani L82 amastigotes infected in CD1 mouse peritoneal macrophages after 5 days by Giemsa staining based microscopic method. It is filed as functional. The settings on record: L82, 120 h, read-out: ED50 (the source's name).
For assay [2], the system named is Leishmania donovani. The experiment in a line: Antileishmanial activity against Leishmania donovani MHOM/SD/00/1SD2D […] amastigotes infected in human peripheral blood monocyte-derived macrophages after 48 hrs by [3H]-thymidine incorporation assay. The assay is classed as functional, organism-based. (Uptake of a labelled nucleoside into DNA is a usual measure of proliferation.)

Assay [3] has as its system Leishmania amazonensis. The experiment in a line: Antileishmanial activity against Leishmania amazonensis LV/79 (MPRO/BR/72/M 1841) amastigotes infected in Balb/c mouse macrophages after 48 hrs by Giemsa staining based light microscopic method. The assay is classed as functional. The following applies: read-out: ED50 (the source's name).
In another assay the test system is Leishmania panamensis. The experiment in a line: Antileishmanial activity against GFP fused Leishmania panamensis MHOM/CO/87/UA140 amastigotes infected in human […] cells after 72 hrs by flow cytometry. The assay is classed as functional, organism-based. The settings on record: MHOM/CO/87/UA140, 72 h. (In general: In flow cytometry, cells or beads pass a laser one at a time.)

Assay [4] concerns Leishmania amazonensis. As to the kind of experiment: Antileishmanial activity against Leishmania amazonensis MHOM/BR/76/LTB-012 axenic amastigotes. The assay is classed as functional, organism-based.
Assay [5] concerns Leishmania amazonensis. As to the kind of experiment: Antileishmanial activity against Leishmania amazonensis MHOM/BR/76/LTB-012 axenic amastigotes after 72 hrs by MTT dye based assay. The assay is classed as functional, organism-based. The settings on record: MHOM/BR/76/LTB-012, 72 h. In general terms: Tetrazolium assays rely on reduction of a dye to a coloured formazan, in cell work by metabolically active cells.

Assay [6] deals with Leishmania donovani. As to the kind of experiment: Antileishmanial activity against DsRed-positive Leishmania donovani Dd8 amastigotes infected in mouse J774A1 cells after 48 hrs by flow cytometry. It is filed as functional, organism-based. The settings on record: Dd8, J774.A1, 48 h.
Assay [7] has as its system Leishmania donovani. The experiment in a line: Antileishmanial activity against Leishmania donovani amastigotes. The assay is classed as functional, organism-based.
The subject of assay [8] is Leishmania amazonensis. The experiment in a line: Antileishmanial activity against Leishmania amazonensis MHOM/BR/75/M-2904 strain Lb2904 amastigotes infected in mouse J774A1 cells after 48 hrs by Giemsa staining based microscopic method. The assay is classed as functional, organism-based. The following applies: MHOM/BR/75/M-2904 Lb290, J774.A1, 48 h.
A further assay deals with Leishmania major. The experiment in a line: Antileishmanial activity against Leishmania major amastigotes infected in human peripheral blood monocyte-derived macrophages. The assay is classed as functional, organism-based.

In brackets after ≈: the same amount, converted by molar mass.

For `O=C(/C=C/c1ccc2ccccc2c1)c1ccc(O)cc1`, the EC50 with Leishmania donovani [1] was 1380 nM.
Same read-out and setting: in the case of `COc1ccc(C(=O)/C=C/c2cnc3ccccc3c2)c(OC)c1` it was 1500 nM.
On the same count and under the same terms, the value for `O=C(/C=C/c1ccccn1)c1ccc(O)cc1` was 1480 nM.
In the assay with Leishmania donovani [2], `C=CCOc1ccc(C(=O)/C=C/c2cccc(OC)c2OC)cc1` came in with an IC50 of 650 nM.
Same read-out and setting: the value for `C=CCOc1ccc(C(=O)/C=C/c2ccc(OC)c(OC)c2)cc1` was 420 nM.
As to `COc1cc(O)c(C(=O)/C=C/c2ccccc2)c(O)c1`, in the assay with Leishmania amazonensis [3], the EC50 was found to be 24 µg/mL (≈ 88.8 µM).
For `O=C(/C=C/c1cccc(Nc2ccnc3cc(Cl)ccc23)c1)c1ccc(Br)cc1`, the IC50 with Leishmania panamensis is 0.88 µg/mL (≈ 1.9 µM).
On the same count and under the same terms, the value for `O=C(/C=C/c1cccc(Nc2ccnc3cc(Cl)ccc23)c1)c1ccc(Cl)cc1` was 0.79 µg/mL (≈ 1.88 µM); that for `COc1ccc(/C=C/C(=O)c2ccc(OCCCCOc3cc(Cl)ccc3Oc3ccc(Cl)cc3Cl)cc2)cc1OC` was 10.2 µg/mL (≈ 16.2 µM).
Still for that read-out and setting: in the case of `COc1ccc(/C=C/C(=O)c2ccc(OCCCCCOc3cc(Cl)ccc3Oc3ccc(Cl)cc3Cl)cc2)cc1OC` it was 13.5 µg/mL (≈ 21 µM); in that of `COc1ccc(/C=C/C(=O)c2ccc(OCCCOc3cc(Cl)ccc3Oc3ccc(Cl)cc3Cl)cc2)cc1OC`, 9.4 µg/mL (≈ 15.3 µM).
Compound `COc1cc(O)c(C(=O)/C=C/c2ccc(O)cc2)c(O)c1` showed an IC50 in the assay with Leishmania amazonensis [4] of 61400 nM.
In turn, `COc1cc(OC)c(C(=O)/C=C/c2ccccc2)c(O)c1OC` showed an IC50 in the assay on Leishmania amazonensis [5] of 800 nM.
In the assay with Leishmania donovani [6], `CC(=O)c1sc(N/N=C/c2cccc(/C=C/C(=O)c3ccco3)c2)nc1C` had an IC50 of 14000 nM.
For `COc1ccc(/C=C/C(=O)c2ccc(OCCCCOc3cccc4cccnc34)cc2)cc1OC`, the IC50 with Leishmania panamensis stood at 6.24 µg/mL (≈ 12.9 µM).
As to `COc1ccc(OC)c(C(=O)/C=C/c2ccccn2)c1`, in the assay with Leishmania donovani [7], the IC50 was determined as 950 nM.
`O=C(/C=C/c1cccc(S(=O)(=O)Nc2ccccc2)c1)c1ccccc1` displayed an IC50 in the assay with Leishmania amazonensis [8] of 2000 nM.
Turning to `COc1ccc(/C=C/C(=O)c2ccccc2)cc1` [4-METHOXY CHALCONE], the IC50 in the assay with Leishmania amazonensis [8] is greater than 30000 nM.
As to `COc1cc(O)cc(O)c1C(=O)/C=C/c1ccccc1` [CARDAMOMIN], the IC50 in the assay with Leishmania amazonensis [5] worked out at 8000 nM.
In the assay with Leishmania major, `C=CC(C)(C)c1cc(/C=C/C(=O)c2ccc(O)cc2)c(OC)cc1O` [LICOAGROCHACONE A] registered an IC50 of 0.5 µg/mL (≈ 1.48 µM).

By IC50 is commonly meant the concentration that inhibits the measured activity by half.
